Data set [1] can be described thus: Thermal stability of itraconazole. The data set is classed as physicochemical. Particulars: temperatures up to 300° C.
The conditions of data set [2]: aqueous media; cited from earlier work.

Each structure is given as a SMILES string.

These results are taken from patent US8486456B2, “Itraconazole compositions with improved bioavailability” (Abbott GmbH & Co., KG, priority 2005, dated 2013).

For the compound `CCC(C)n1ncn(-c2ccc(N3CCN(c4ccc(OCC5COC(Cn6cncn6)(c6ccc(Cl)cc6Cl)O5)cc4)CC3)cc2)c1=O` (single isomer, unassigned; (+)) [itraconazole, (+)-cis-4-[4-[4-[4-[[2-(2,4-dichlorophenyl)-2-(1H-1,2,4-triazol-1-yl-methyl)-1,3-dioxolan-4-yl]methoxy]phenyl]-1-piperazinyl]phenyl]-2,4-dihydro-2-(1-methylpropyl)-3H-1,2,4-triazol-3-one], the thermal stability entry in data set [1] is on record as “thermally very stable”. Moreover, the solubility entry in data set [2] is listed as “practically insoluble”.
